Data: patent publication US20240159740A1, “METHOD FOR DIRECT ANALYSIS OF FUNCTIONAL AVIDITY OF T CELLS” (priority 2021, published 2024)
Values joined by “and” are separate entries in the source; they are usually repeats but may differ in a detail not shown here. Identical values can stand only once.

What was measured:
[1] = test system: expanded CD40L+4-1BB+ CD4+ short-term T cell lines; assay: Restimulation of expanded short-term T cell lines with autologous APC and peptides or peptide pools; assay type: cell-based, human; details: T cell lines from 5 unexposed individuals
[2] = test system: serum IgG antibodies; details: sera 1:100 from iCope T cell assay responders and non-responders
Experimental: After blocking (1 h, 30° C.) serum samples were diluted 1:100 and incubated for 1 h at 30° C. HRP-coupled, anti-human-IgG secondary antibody (Jackson Immunoresearch) was diluted 1:5000 (Jackson Immunoresearch) and added to the serum samples for 1 h at 30° C., then HRP substrate was added (TMB, Kem-En-Tec). The reaction was stopped by adding sulfuric acid and absorption was measured at 450 nm using a FlexStation 3.

[3] = test system: CD40L+4-1BB+ CD4+ T cells; assay: Ex vivo T cell stimulation of PBMC, stimulation index of CD40L+4-1BB+ CD4+ T cells by flow cytometry; assay type: cell-based, human
[4] = test system: CD3 surface expression in CD40L+4-1BB+ CD4+ T cells; assay type: cell-based, human

Substance: FIEDLLFNKVTLADA [compound 205]
- donors whose expanded SARS-CoV-2 S-II-cross-reactive T cells were stimulated by the peptide [1]: all 5 donors

Substance: SKRSFIEDLLFNKVT [compound 204]
- donors whose expanded SARS-CoV-2 S-II-cross-reactive T cells were stimulated by the peptide [1]: all 5 donors

Substance: Biotin-Ttds-PSKPSKRSFIEDLLFNKV-OH [204_-1]
- peptide binding IgG antibodies detected in serum [2]: in all individuals

Substance: SFIEDLLFNKVTLAD [iCope]
- proportion of individuals with iCope-recognizing CD4+ T cells ([3]; BNT162b2 vaccinated individuals): 97%
- proportion of individuals with iCope-reactive CD4+ T cells ([3]; SARS-CoV-2 / COVID-19 convalescents): 50% and 50-60%
- contribution of peptide-specific T cells to the CD40L+4-1BB+ cells in S-II stimulations ([3]; initially after BNT162b2 vaccination): up to 100%
- proportion of individuals with iCope-reactive CD4+ T cells ([3]; unexposed individuals): 20%
- strong responders (stim. index>3) ([3]; young, unexposed donors): 44%
- weak responders (stim. index>1.5) ([3]; young, unexposed donors): 39%
- donors in which reactive T cells increased in frequency and in functional avidity [4]: 10 of 17
- donors responding with high functional avidity T cells ([4]; day 7 and day 14 after BNT162b2 primary vaccination, 31 donors): 94%
